Earlier results in paper PMC6277767, “Broad and Region-Specific Impacts of the Synthetic Cannabinoid CP 55,940 in Adolescent and Adult Female Mouse Brains” (Frontiers in Molecular Neuroscience, 2018).

How the values were obtained:
BV-2 microglial cells = tested on: BV-2 microglial cells; design: method as in Rimmerman et al., 2012; details: ref Rimmerman et al., 2012; cited from earlier work
[1] = tested on: human peripheral blood mononuclear cells; design: method as in Bileck et al., 2016; details: 10 μM for 3 h; ref Bileck et al., 2016; cited from earlier work
DAGLα = tested on: DAGLα; design: method as in Ogasawara et al., 2016; details: reductions measured at 2 h and 4 h post-injection; ref Ogasawara et al., 2016; cited from earlier work
CB1 [2] = details: ref Brents et al., 2011; read-out: EC50, stimulated G-protein binding at CB1; cited from earlier work
CB1 [3] = tested on: CB1; design: method as in Felder et al., 1995; details: ref Felder et al., 1995; read-out: IC50, inhibition of adenylate cyclase at CB1; cited from earlier work
CB2 = tested on: CB2; design: method as in Felder et al., 1995; details: ref Felder et al., 1995; read-out: IC50, inhibition of adenylate cyclase at CB2; cited from earlier work
[4] = design: method as in Leishman et al., 2018; details: acute exposure, all age groups; ref Leishman et al., 2018; cited from earlier work

With `C=C(C)[C@@H]1CCC(C)=C[C@H]1c1c(O)cc(CCCCC)cc1O` [CBD, cannabidiol] as the compound, how does the “levels of AEA” value (BV-2 microglial cells) read?
Its value is “increased”.

Which results are given for `CCCCCCCC(C)(C)c1ccc([C@H]2CCC[C@@H](O)C2)c(O)c1` [CP 47,497-C8]?
expression of 5-LOX compared to vehicle [1]: 26 fold; expression of fatty acid synthase [1]: over twofold

For `C#CCO[C@@H]1CC[C@H](Cc2ccccc2)N(C(=O)n2ncc(C(O)(c3ccc(F)cc3)c3ccc(F)cc3)n2)C1` [DH376], which “time for reduced 2-AG, AA and AEA levels to return to baseline” value (DAGLα) is on record?
The value was at most 8 h.

What does the source list for `CCCCCc1cc(O)c2c(c1)OC(C)(C)[C@@H]1CCC(C)=C[C@@H]21` [THC, Δ^9-tetrahydrocannabinol]?
EC50 (CB1 [2]): […]; IC50 (CB1 [3]): […]; IC50 (CB2): 41.8 nM; brain area with highest THC levels [4]: HIPP
